{
  "source": "patent US20250345295A1",
  "about": "“LMK235 COMPOSITIONS AND METHODS” (UNM Rainforest Innovations, priority 2024, published 2025)",
  "system": "differentially expressed genes in TG",
  "test": "RNAseq gene expression profiling of TG",
  "type": "in vivo, mouse",
  "details": "for Log2FC Ascl1 / Log2FC Klf2 / Log2FC Klf4 / Log2FC Klf5 / Log2FC Klf6 / Log2FC Klf7 / Log2FC Klf9 / Log2FC Klf13 / Log2FC Klf15 / Log2FC Klf16 / Log2FC L-Myc (Mycl) / Log2FC Lin28b / Log2FC Myt1l / Log2FC N-Myc (Mycn) / Log2FC Nanog / Log2FC NeuroD1 / Log2FC Sirt1 / Log2FC Sox2 / Log2FC Sox11 / Log2FC Stat3 / Log2FC c-Myc (Myc): TG",
  "experimental": "Gene expression profiling was performed on TG from mice with/without nerve injury during the acute phase (three weeks post injury) in TIC mice and after transition to chronic pain (10 weeks post injury) in FRICT-ION mice by Quick Biology Inc. (Monrovia, CA).\nTotal RNA from ipsilateral TG was isolated using the Rneasy Mini Kit (Qiagen, Valencia, CA). Gene expression profiling and analysis with RNA was done by Quick Biology Inc. (Monrovia, CA). RNAseq library preparation was performed by Quick Biology Inc. (Monrovia, CA), sequencing was performed using an Illumina HiSeq 4000 at 40 million reads per sample. The reads were first mapped to the latest UCSC transcript set using Bowtie2 version 2.1.0 and the gene expression level was estimated using RSEM v1.2.15. Differentially expressed genes were identified using the edgeR program. Genes showing altered expression with p<0.05 were considered differentially expressed.",
  "key": {"[1]": {"details": "TG RNAseq, male FRICT-ION mice treated with LMK235 vs naive, week 10"}, "[2]": {"details": "LMK235 Treated FRICT-ION versus Naive"}, "[3]": {"details": "LMK235 Treated FRICT-ION versus Untreated FRICT-ION"}},
  "note": "Several values for one entry are separate records, joined by “and”; a condition that tells them apart may be missing. Identical values can stand only once.",
  "data": [
    {"smiles": "Cc1cc(C)cc(C(=O)NOCCCCCC(=O)NO)c1", "note": "[LMK235, N-[[6-(Hydroxyamino)-6-oxohexyl]oxy]-3,5-dimethyl-benzamide]", "values": [
      {"measurement": "Fold change 1500015O10Rik", "setting": "[1]", "result": 4.68, "unit": "fold"},
      {"measurement": "Fold change 4833423E24Rik", "setting": "[1]", "result": 2.10, "unit": "fold"},
      {"measurement": "Fold change Ache", "setting": "[1]", "result": "−1.12", "unit": "fold"},
      {"measurement": "Fold change Ackr4", "setting": "[1]", "result": 3.74, "unit": "fold"},
      {"measurement": "Fold change Aqp1", "setting": "[1]", "result": "7.41 fold and 7.4 fold"},
      {"measurement": "Fold change Calml4", "setting": "[1]", "result": 2.88, "unit": "fold"},
      {"measurement": "Fold change Car12", "setting": "[1]", "result": 6.21, "unit": "fold"},
      {"measurement": "Fold change Ccdc135", "setting": "[1]", "result": 2.84, "unit": "fold"},
      {"measurement": "Fold change Cldn1", "setting": "[1]", "result": 2.48, "unit": "fold"},
      {"measurement": "Fold change Cldn2", "setting": "[1]", "result": 8.46, "unit": "fold"},
      {"measurement": "Fold change Col8a2", "setting": "[1]", "result": 3.06, "unit": "fold"},
      {"measurement": "Fold change Crhr2", "setting": "[1]", "result": 2.35, "unit": "fold"},
      {"measurement": "Fold change Enpp2", "setting": "[1]", "result": 2.22, "unit": "fold"},
      {"measurement": "Fold change F5", "setting": "[1]", "result": 6.19, "unit": "fold"},
      {"measurement": "Fold change Fap", "setting": "[1]", "result": 3.16, "unit": "fold"},
      {"measurement": "Fold change Folr1", "setting": "[1]", "result": "11.92 fold and 11.91 fold"},
      {"measurement": "Fold change Gmnc", "setting": "[1]", "result": 2.40, "unit": "fold"},
      {"measurement": "Fold change Gvin1", "setting": "[1]", "result": 5.55, "unit": "fold"},
      {"measurement": "Fold change Hdac5", "setting": "[1]", "result": "−1.13", "unit": "fold"},
      {"measurement": "Fold change Hdac10", "setting": "[1]", "result": "−1.20", "unit": "fold"},
      {"measurement": "Fold change Igfbpl1", "setting": "[1]", "result": 2.39, "unit": "fold"},
      {"measurement": "Fold change Il1a", "setting": "[1]", "result": 2.21, "unit": "fold"},
      {"measurement": "Fold change Inmt", "setting": "[1]", "result": 6.34, "unit": "fold"},
      {"measurement": "Fold change Kcne2", "setting": "[1]", "result": 17.29, "unit": "fold"},
      {"measurement": "Fold change Kcnj13", "setting": "[1]", "result": 7.84, "unit": "fold"},
      {"measurement": "Fold change Kl", "setting": "[1]", "result": 5.00, "unit": "fold"},
      {"measurement": "Fold change Krt18", "setting": "[1]", "result": 6.56, "unit": "fold"},
      {"measurement": "Fold change Lbp", "setting": "[1]", "result": 3.97, "unit": "fold"},
      {"measurement": "Fold change Lum", "setting": "[1]", "result": 2.08, "unit": "fold"},
      {"measurement": "Fold change Mfrp", "setting": "[1]", "result": 4.30, "unit": "fold"},
      {"measurement": "Fold change Otx2", "setting": "[1]", "result": 5.17, "unit": "fold"},
      {"measurement": "Fold change Postn", "setting": "[1]", "result": 2.24, "unit": "fold"},
      {"measurement": "Fold change Prr32", "setting": "[1]", "result": 5.41, "unit": "fold"},
      {"measurement": "Fold change Rbm14-rbm4", "setting": "[1]", "result": 66.16, "unit": "fold"},
      {"measurement": "Fold change Slc4a5", "setting": "[1]", "result": 4.83, "unit": "fold"},
      {"measurement": "Fold change Sostdc1", "setting": "[1]", "result": 15.70, "unit": "fold"},
      {"measurement": "Fold change Tgtp1", "setting": "[1]", "result": 2.49, "unit": "fold"},
      {"measurement": "Fold change Tmem72", "setting": "[1]", "result": 6.47, "unit": "fold"},
      {"measurement": "Fold change Tmprss11a", "setting": "[1]", "result": 37.90, "unit": "fold"},
      {"measurement": "Fold change Tnfsf13", "setting": "[1]", "result": 2.14, "unit": "fold"},
      {"measurement": "Fold change Ttr", "setting": "[1]", "result": 23.21, "unit": "fold"},
      {"measurement": "Fold change Wfdc2", "setting": "[1]", "result": 4.61, "unit": "fold"},
      {"measurement": "Log2FC Ascl1", "setting": "[2]", "result": 1.16, "unit": "Log2FC"},
      {"measurement": "Log2FC Klf2", "setting": "[2]", "result": "−1.57", "unit": "Log2FC"},
      {"measurement": "Log2FC Klf4", "setting": "[2]", "result": "−1.23", "unit": "Log2FC"},
      {"measurement": "Log2FC Klf5", "setting": "[2]", "result": 1.25, "unit": "Log2FC"},
      {"measurement": "Log2FC Klf6", "setting": "[2]", "result": 1.03, "unit": "Log2FC"},
      {"measurement": "Log2FC Klf7", "setting": "[2]", "result": 1.12, "unit": "Log2FC"},
      {"measurement": "Log2FC Klf9", "setting": "[2]", "result": "−1.03", "unit": "Log2FC"},
      {"measurement": "Log2FC Klf13", "setting": "[2]", "result": "−1.16", "unit": "Log2FC"},
      {"measurement": "Log2FC Klf15", "setting": "[2]", "result": "−1.26", "unit": "Log2FC"},
      {"measurement": "Log2FC Klf16", "setting": "[2]", "result": "−1.08", "unit": "Log2FC"},
      {"measurement": "Log2FC L-Myc (Mycl)", "setting": "[2]", "result": 1.08, "unit": "Log2FC"},
      {"measurement": "Log2FC Lin28b", "setting": "[2]", "result": "−1.13", "unit": "Log2FC"},
      {"measurement": "Log2FC Myt1l", "setting": "[2]", "result": 1.03, "unit": "Log2FC"},
      {"measurement": "Log2FC N-Myc (Mycn)", "setting": "[2]", "result": 1.63, "unit": "Log2FC"},
      {"measurement": "Log2FC Nanog", "setting": "[2]", "result": 1.01, "unit": "Log2FC"},
      {"measurement": "Log2FC NeuroD1", "setting": "[2]", "result": 1.26, "unit": "Log2FC"},
      {"measurement": "Log2FC Sirt1", "setting": "[2]", "result": 1.17, "unit": "Log2FC"},
      {"measurement": "Log2FC Sox2", "setting": "[2]", "result": 1.25, "unit": "Log2FC"},
      {"measurement": "Log2FC Sox11", "setting": "[2]", "result": 1.05, "unit": "Log2FC"},
      {"measurement": "Log2FC Stat3", "setting": "[2]", "result": "−1.00", "unit": "Log2FC"},
      {"measurement": "Log2FC c-Myc (Myc)", "setting": "[2]", "result": 1.14, "unit": "Log2FC"},
      {"measurement": "Log2FC Ascl1", "setting": "[3]", "result": 1.05, "unit": "Log2FC"},
      {"measurement": "Log2FC Klf2", "setting": "[3]", "result": 1.20, "unit": "Log2FC"},
      {"measurement": "Log2FC Klf4", "setting": "[3]", "result": 1.13, "unit": "Log2FC"},
      {"measurement": "Log2FC Klf5", "setting": "[3]", "result": "−1.30", "unit": "Log2FC"},
      {"measurement": "Log2FC Klf6", "setting": "[3]", "result": 1.05, "unit": "Log2FC"},
      {"measurement": "Log2FC Klf7", "setting": "[3]", "result": 1.15, "unit": "Log2FC"},
      {"measurement": "Log2FC Klf9", "setting": "[3]", "result": "−1.05", "unit": "Log2FC"},
      {"measurement": "Log2FC Klf13", "setting": "[3]", "result": "−1.17", "unit": "Log2FC"},
      {"measurement": "Log2FC Klf15", "setting": "[3]", "result": "−1.16", "unit": "Log2FC"},
      {"measurement": "Log2FC Klf16", "setting": "[3]", "result": "−1.24", "unit": "Log2FC"},
      {"measurement": "Log2FC L-Myc (Mycl)", "setting": "[3]", "result": "−1.54", "unit": "Log2FC"},
      {"measurement": "Log2FC Lin28b", "setting": "[3]", "result": 1.07, "unit": "Log2FC"},
      {"measurement": "Log2FC Myt1l", "setting": "[3]", "result": "−1.17", "unit": "Log2FC"},
      {"measurement": "Log2FC N-Myc (Mycn)", "setting": "[3]", "result": 1.00, "unit": "Log2FC"},
      {"measurement": "Log2FC Nanog", "setting": "[3]", "result": "−1.03", "unit": "Log2FC"},
      {"measurement": "Log2FC NeuroD1", "setting": "[3]", "result": 1.21, "unit": "Log2FC"},
      {"measurement": "Log2FC Sirt1", "setting": "[3]", "result": 1.02, "unit": "Log2FC"},
      {"measurement": "Log2FC Sox2", "setting": "[3]", "result": 1.07, "unit": "Log2FC"},
      {"measurement": "Log2FC Sox11", "setting": "[3]", "result": "−1.21", "unit": "Log2FC"},
      {"measurement": "Log2FC Stat3", "setting": "[3]", "result": "−1.04", "unit": "Log2FC"},
      {"measurement": "Log2FC c-Myc (Myc)", "setting": "[3]", "result": "−1.03", "unit": "Log2FC"}
    ]}
  ]
}
